Solubility data for 2 sequences are collected here from paper PMC2949846 (Virology Journal, 2010).

No end group written: not given here.

This data set can be described thus: physchem. The conditions noted are these: water.

For the sequence EAKSSIAKHFSLWKSYADADIKNSENK [A], the concentration in solution (solubility) was 2000 µg/mL.

Turning to FHNSNSRILFNQENNNFMYS [B], the concentration in solution (solubility) was 2000 µg/mL.
